Source: patent US8138212B2, “Synergistic microbicidal compositions” (Rohm and Haas Company, priority 2009, dated 2012)
Read-outs that look alike come from different tables or passages of the source.

How the values were obtained:
Type in all cases: cell-based
[1] = test system: Aspergillus niger (A. niger—ATCC 16404); test: Synergy test, microtiter plate high resolution MIC assay, mold; settings: for MIC: Aspergillus niger
Text: (§1) One skilled in the art will recognize that the sensitivity of other microorganisms to the particular combinations will vary and, as a result, the concentrations, the ratios, for each, or both, of the compounds may vary from those detailed in these examples. The concentrations and ratios may also vary under different test conditions or with different test methods. One measure of synergy is the industrially accepted method described by Kull, […]. and Mayer, R. L., in Applied Microbiology 9:538-541 (1961), using the ratio determined by the formula: Qa/QA+Qb/QB=Synergy Index (“SI”) wherein: • QA=concentration of compound A (first component) in ppm, acting alone, which produced an end point (MIC of Compound A). • Qa=concentration of compound A in ppm, in the mixture, which produced an end point. • QB=concentration of compound B (second component) in ppm, acting alone, which produced an end point (MIC of Compound B). • Qb=concentration of compound B in ppm, in the mixture, which produced an end point. When the sum of Qa/QA and Qb/QB is greater than one, antagonism is indicated. […] The lower the SI, the greater is the synergy shown by that particular mixture. The minimum inhibitory concentration (MIC) of a microbicide is the lowest concentration tested under a specific set of conditions that prevents the growth of the tested microorganisms. Synergy tests were conducted using standard microtiter plate assays with media designed for optimal growth of the test microorganism. Minimal salt medium supplemented with 0.2% glucose and 0.1% yeast extract ([…] medium) was used for testing bacteria; Potato Dextrose Broth (PDB medium) was used for testing yeast and mold. In this method, a wide range of combinations of microbicides and other personal care raw materials was tested by conducting high resolution MIC assays in the presence of various concentrations of MIT, or BIT. […] The synergy of the combinations of the present invention was determined against a bacterium, Escherichia coli (E. coli-ATCC #8739), and/or a yeast, Candida albicans (C. albicans-ATCC 10231), and/or a mold, Aspergillus niger (A. niger-ATCC 16404). The bacteria were used at a concentration of about 5×10^6 bacteria per mL and the yeast and mold at 5×10^5 fungi per mL. These microorganisms are representative of natural contaminants in many consumer and industrial applications. […] (yeast and mold) or 30° C. (bacteria). […] In each test, First Component (A) was MIT and the Second Component (B) was the other microbicide, formulation ingredient, or raw material.

[2] = test system: Candida albicans (C. albicans—ATCC 10231); test: Synergy test, microtiter plate high resolution MIC assay, yeast; settings: for MIC: Candida albicans
Text: as §1

[3] = test system: Escherichia coli (E. coli—ATCC #8739); test: Synergy test, microtiter plate high resolution MIC assay, bacterium; settings: E. coli 8739, M9GY medium; for MIC: Escherichia coli, read-out: QB: MIC of second component (B) acting alone
Text: as §1

[4] = A. niger 16404, PDB medium, 10 days
[5] = C. albicans 10231, PDB medium, 3 days
[6] = C. albicans 10231, PDB medium, 2 days
[7] = A. niger 16404, PDB medium, 3 days
[8] = A. niger 16404, PDB medium, 6 days
[9] = C. albicans 10231, PDB medium, 1 day
[10] = ATCC16404, 72 h, A. niger 16404, PDB medium, 3 days, read-out: QB: MIC of second component (B) acting alone
[11] = ATCC10231, 24 h, C. albicans 10231, PDB medium, 1 day, read-out: QB: MIC of second component (B) acting alone
[12] = ATCC10231, 48 h, C. albicans 10231, PDB medium, 2 days, read-out: QB: MIC of second component (B) acting alone
[13] = ATCC16404, 240 h, A. niger 16404, PDB medium, 10 days, read-out: QB: MIC of second component (B) acting alone

SMILES	SI (Synergy Index, Qa/QA+Qb/QB) [1, 4]	SI (Synergy Index, Qa/QA+Qb/QB) [2, 5]	SI (Synergy Index, Qa/QA+Qb/QB) ([3]; 1 day)	MIC ([3]; ATCC8739, 24 h, 1 day) [mg/L]	SI (Synergy Index, Qa/QA+Qb/QB) [2, 6]	SI (Synergy Index, Qa/QA+Qb/QB) [1, 7]	SI (Synergy Index, Qa/QA+Qb/QB) [1, 8]	SI (Synergy Index, Qa/QA+Qb/QB) [2, 9]	MIC [2, 12] [mg/L]	also measured
CC(C(=O)O)N(CC(=O)O)CC(=O)O (stereo not shown) [MDGA, methyl glycine diacetic acid]	1.00	1.00	–	–	–	–	–	–	–	–
O=C(O)/C=C\C(=O)O [maleic acid, 2-butenedioic acid]	–	–	1.00	8000	1.00	–	–	–	–	–
Cn1sccc1=O [MIT, 2-methyl-4-isothiazolin-3-one]	1.00	1.00	–	–	1.00	1.00	1.00	1.00	–	QA: MIC of first component (A) acting alone [1, 7]: 200 ppm; MIC ([1]; ATCC16404, 72 h, read-out: QA: MIC of first component (A) acting alone, A. niger 16404, PDB medium, 3 days): 300 mg/L; MIC ([1]; ATCC16404, 144 h, read-out: QA: MIC of first component (A) acting alone, A. niger 16404, PDB medium, 6 days): 300 mg/L; MIC ([1]; ATCC16404, 240 h, read-out: QA: MIC of first component (A) acting alone, A. niger 16404, PDB medium, 10 days): 300 mg/L; MIC ([2]; ATCC10231, 24 h, read-out: QA: MIC of first component (A) acting alone): 200 mg/L; MIC ([2]; ATCC10231, 48 h, read-out: QA: MIC of first component (A) acting alone): 200 mg/L; MIC ([2]; ATCC10231, 72 h, read-out: QA: MIC of first component (A) acting alone): 200 mg/L
CCCCCCCCC(O)CO (stereo not shown) [decylene glycol, 1,2-decanediol]	–	–	–	–	1.00	1.00	–	1.00	2000	MIC [1, 10]: 2000 mg/L; MIC [2, 11]: 2000 mg/L
CCC(=O)O [propionic acid, ethanecarboxylic acid]	1.00	–	1.00	5000	1.00	–	–	1.00	2000	MIC [1, 13]: 500 mg/L; MIC [2, 11]: 2000 mg/L
CC(O)COc1ccccc1 (stereo not shown) [phenoxypropanol, propylene glycol phenyl ether]	–	1.00	–	–	–	1.00	–	–	–	MIC [1, 10]: 3000 mg/L; MIC ([2]; ATCC10231, 72 h, C. albicans 10231, PDB medium, 3 days, read-out: QB: MIC of second component (B) acting alone): 5000 mg/L
O=P(O)(O)O[C@H]1[C@H](OP(=O)(O)O)[C@@H](OP(=O)(O)O)[C@H](OP(=O)(O)O)[C@@H](OP(=O)(O)O)[C@H]1OP(=O)(O)O [phytic acid, inositol hexaphosphoric acid]	1.00	–	1.00	5000	1.00	–	–	–	3000	MIC [1, 13]: 20000 mg/L
COc1ccc(C(=O)O)cc1 [anisic acid, 4-methoxybenzoic acid]	–	–	1.00	8000	–	1.00	–	–	–	MIC [1, 10]: 2000 mg/L
O=C(O)CC(NC(CC(=O)O)C(=O)O)C(=O)O (stereo not shown) [IDS, iminodisuccinate]	–	–	–	–	1.00	1.00	–	–	–	QB: MIC of second component (B) acting alone [1, 7]: 5000 ppm
O=C(O)CN(CCN(CC(=O)O)CC(=O)O)CCN(CC(=O)O)CC(=O)O [DTPA, diethylene triamine pentacetic acid]	–	–	–	–	–	1.00	1.00	1.00	–	QB: MIC of second component (B) acting alone [1, 7]: 800 ppm; QB: MIC of second component (B) acting alone [1, 8]: 2000 ppm; QB: MIC of second component (B) acting alone [2, 9]: 2000 ppm
O=c1[nH]sc2ccccc12 [BIT, 1,2-benzisothiazolin-3-one]	1.00	1.00	1.00	–	1.00	1.00	1.00	1.00	–	QA: MIC of first component (A) acting alone [1, 8]: 20 ppm; QA: MIC of first component (A) acting alone [1, 4]: 20 ppm; QA: MIC of first component (A) acting alone ([3]; 1 day): 15 ppm; QA: MIC of first component (A) acting alone ([3]; 2 days): 15 ppm; SI (Synergy Index, Qa/QA+Qb/QB) ([3]; 2 days): 1.00; QA: MIC of first component (A) acting alone ([3]; 3 days): 15 ppm; SI (Synergy Index, Qa/QA+Qb/QB) ([3]; 3 days): 1.00; QA: MIC of first component (A) acting alone [2, 9]: 20 ppm
CCCCCCCCCC(=O)O [capric acid, decanoic acid]	–	–	–	–	1.00	–	1.00	–	2000	MIC ([1]; ATCC16404, 144 h, A. niger 16404, PDB medium, 6 days, read-out: QB: MIC of second component (B) acting alone): 5000 mg/L; SI (Synergy Index, Qa/QA+Qb/QB) ([3]; 3 days): 1.00; MIC ([3]; ATCC8739, 72 h, 3 days): 10000 mg/L
